The values below are quoted from earlier work in US20030130179A1, “Methods for identifying therapeutic targets for treating infectious disease” (priority 2000, published 2003).

The target of series [1] is thymidylate synthase (TS) (Homo sapiens, UniProt P04818).
Series [2] concerns colon and breast cancer.

Sequence of thymidylate synthase (TS) (P04818 2-313 limits assumed): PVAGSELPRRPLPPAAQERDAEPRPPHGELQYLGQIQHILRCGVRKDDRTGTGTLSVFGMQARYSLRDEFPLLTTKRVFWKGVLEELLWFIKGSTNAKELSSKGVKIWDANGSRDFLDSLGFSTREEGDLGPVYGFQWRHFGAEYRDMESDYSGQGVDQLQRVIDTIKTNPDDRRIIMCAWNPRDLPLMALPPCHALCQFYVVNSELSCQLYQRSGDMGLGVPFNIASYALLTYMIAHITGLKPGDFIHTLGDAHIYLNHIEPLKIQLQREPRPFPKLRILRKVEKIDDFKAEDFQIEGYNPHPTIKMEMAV

Regarding `O=c1[nH]c(=O)n([C@@H]2O[C@H](CO)[C@@H](O)[C@H]2O)cc1F` [5-fluorouridine], in series [1] (TS inhibitor, relation to TS expression (Copur et al., 1995)), the cytotoxicity profile entry was “more toxic to the cells which express low amounts of the enzyme”.

On to `COC(=O)[C@H](C)NP(=O)(OC[C@H]1O[C@@H](n2cc(/C=C/Br)c(=O)[nH]c2=O)C[C@@H]1O)Oc1ccccc1` (stereo partly shown) [NB1011], for which the Cytotoxicity entry in series [1] (model cell-based systems, relation to TS protein levels) is on record as “proportional to TS protein levels”. Further, the “toxicity to the host” value in series [2] (animal models) is on record as “little or no toxicity to the host”. For the same compound, in series [2] (colon and breast cancer animal models), the efficacy entry is “demonstrated efficacy against colon and breast cancer”.
